Source: article PMC8869097, “Benzothiazole Derivatives as Multifunctional Antioxidant Agents for Skin Damage: Structure–Activity Relationship of a Scaffold Bearing a Five-Membered Ring System” (Antioxidants, 2022)
Like-named read-outs stand apart in the source and are kept apart here.

Columns and labels:
[1] = Ferric Reducing Antioxidant Power assay (FRAP); settings: 593 nm
Protocol: The FRAP assay is a widely used method based on a colorimetric reaction linked to a redox and on the use of antioxidants as reducing agents.
The test evaluates the capacity of a sample to reduce ferric to ferrous ions in the presence of TPTZ (2,4,6-tripyridyl-s-triazine). The reaction mixture consists of 0.1 M acetate buffer pH 3.6, 10 mmol/L TPTZ in 40 mmol/HCl, and 20 mmol/L ferric chloride in the ratio 10/1/1 (v:v:v) as described by Benzie et al.. A total of 1.9 mL of reagent was added to 0.1 mL of suitably diluted sample or solvent. The absorbance values were measured using the UV-VIS spectrophotometer at 593 nm and expressed as µmol TE/g compound.

In vitro DPPH test = settings: compounds at 1 mg/mL, 30 min, 517 nm
Protocol: The assay performed is adapted from Wang et al.. Briefly, 0.750 mL of 1 mg/mL solutions of the tested compounds was treated with 1.5 mL of DPPH solution in MeOH. The absorbance of samples, stored for 30 min at room temperature in the dark, was read on the spectrophotometer at 517 nm. The values obtained were converted into a radical inhibition percentage (%) by Equation (1). DPPH radical scavenging capacity (%) = [1 − A1/A0] × 100%(1) where A0 and A1 were, respectively, the absorbance without and with the sample. Subsequently, the compound with the best profile was tested in order to determine the IC50 (µg/mL). A linear regression plot is performed to calculate the actual sample concentration required to eliminate 50% of the DPPH free radicals.
The antioxidant activity of a molecule is very important and, if present, it can be synergistic with the SPF described above in reducing the damage that is ROS-induced by UV rays. For this reason, the synthesized compounds were assayed in vitro to assess their antioxidant profiles by means of the DPPH and FRAP assays (Table 2). Regarding the ability to scavenge the stable radical 2,2-diphenyl-1-picrylhydrazyl (DPPH), it was decided to investigate first the compounds synthesized at the same concentration (1 mg/mL) and evaluate the percentage of inhibition of the radical DPPH.

Trichophyton tonsurans = experiment: Antidermatophyte activity, plaque growth inhibition; type: cell-based, Trichophyton tonsurans CBS 483.76; settings: read-out: % Inhibition Growth T. tonsurans
Protocol: (§1) The dermatophytes used in this study were Epidermophyton floccosum var. floccosum (Netherlands) CBS 358.93 strain, Trichophyton tonsurans (Netherlands) CBS 483.76 strain, Trichophyton mentagrophytes (Netherlands) CBS 160.66 strain, Microsporum canis (Iran) CBS 131,110 strain, and Microsporum gypseum (Iran) CBS 130,948 strain. All dermatophytes were maintained at 4 °C as agar slants on SDA. Candida albicans (ATCC 10231) was maintained at 4 °C on SDA plate.
(§2) The in vitro antifungal activity against the five selected dermatophytes was evaluated, as previously described, using the plaque growth inhibition method. All compounds were evaluated at the final concentration of 100 µg/mL. The percentages of growth inhibition according to Equation (5) were calculated as the average of three different experiments. I = [(C − T)/C] × 100%,(5) where I is the percentage value of growth inhibition, C is the measure of the diameter of the control circular mycelial inoculum (mm) and T is the extended diameter of the treated mycelial inoculum (mm).
(§3) All synthesized benzothiazole derivatives were evaluated to evaluate their in vitro antifungal activity against the five pathogenic dermatophytes that cause the most common dermatomycoses: Microsporum gypseum, Microsporum canis, Trichophyton mentagrophytes, Trichophyton tonsurans and Epidermophyton floccosum. All compounds were tested at a concentration of 100 µg/mL in DMSO, to evaluate the ability to inhibit the growth of dermatophyte cultures in Sabouraud Dextrose Agar (SDA). Briefly, room temperature incubation was performed and dermatophyte inhibition assessed by measuring the colony diameter at each disc for 7 days. The results are shown in Table 3 and were determined as the average of three different experiments.

[2] = test system: Trichophyton mentagrophytes; experiment: as above; type: cell-based, Trichophyton mentagrophytes CBS 160.66; settings: read-out: % Inhibition Growth T. mentagrophytes
Protocol: as §1, §2, §3

Microsporum canis = experiment: as above; type: cell-based, Microsporum canis CBS 131,110; settings: read-out: % Inhibition Growth M. canis
Protocol: as §1, §2, §3

Microsporum gypseum = experiment: as above; type: cell-based, Microsporum gypseum CBS 130,948; settings: Nannizzia gypsea, read-out: % Inhibition Growth M. gypseum
Protocol: as §1, §2, §3

[3] = UV spectra of compounds in solution (filtering parameters); type: physicochemical
Protocol: The evaluation of the sun protection parameters has been carried out using a UV-Vis spectrophotometer. The absorbance of the solutions of the test compounds dissolved in the different solvents (DMSO, MeOH, DMSO–H2O 4:6, DMSO–H2O 6:4, HE) at a concentration of 0.0015 (±0.000005)% was recorded in the range 290–400 nm using a 1 cm quartz cell at 1 nm intervals. It was decided to evaluate the profile of the compounds in the Peg-7 Glyceryl Cocoate (HE) oil, which is the emollient of choice to solubilize the compounds in a formulation suitable for in vivo analysis. Wavelength absorbance is in relationship with transmittance (T (λ)) from Equation (2) A (λ) = […](2) where T (λ) is the fraction of incident irradiance that is transmitted through a sample.
The three parameters were determined, respectively, in DMSO and in methanol in order to perform a comparison (Table S1).
Since DMSO is a solvent with characteristics very close to those of an oil, the analysis was also carried out in solutions that mimic the possible conditions of a formulation. For this reason, the 4:6 and 6:4 proportions of DMSO–H2O were chosen to evaluate the choice of an oil-in-water or water-in-oil emulsion.

Epidermophyton floccosum = experiment: Antidermatophyte activity, plaque growth inhibition; type: cell-based, Epidermophyton floccosum var. floccosum CBS 358.93; settings: read-out: % Inhibition Growth E. floccosum
Protocol: as §1, §2, §3

[4] = Filtering parameters (in vitro SPF, UVAPF, UVA/UVB, critical wavelength) of W/O formulations on PMMA plates; type: physicochemical
Protocol: The synthesized derivatives were incorporated at increasing concentrations (1%, 2% and 3%) in a topical W/O cosmetic standard formulation, to evaluate the filtering parameters, having the following ingredients composition.
INCI (International Nomenclature Cosmetic Ingredients): aqua, glycerin, Euxyl PE 9010, xanthan gum, ceteareth-12, ceteareth-20, sterearic acid, butylhydroxytoluene, myritol, PEG-7 glyceryl cocoate and 10% sodium solution.
Briefly, the protocol is to finger spread 32.5 mg of each formulation onto 25 cm2 PMMA plates. Each formulation was tested in triplicate by recording five measurements for each dish, after incubation in the dark for 15–30 min at room temperature. UV transmittance data were recorded in the range 290–400 nm using a UV-VIS spectrophotometer.
Blank plate, SPF, UVA-PF and Critical Wavelength were achieved through SPF Calculator Software (version 2.1), Shimadzu, Milan, Italy) as previously reported.
For the determination of the SPF in vitro of the samples in formulation it was decided to use an internal method, developed by us previously and based on the adaptation of the ISO 24443: 2012 [38]. The transmittance spectrum, processed with a specific software (SPF Calculator), made it possible to obtain the SPF, UVAPF, critical lambda and UVA/UVB ratio values of the formulations containing the selected active ingredients (Table 1).

Row | A (absorbance) ([3]; DMSO) | ε (molar extinction coefficient) ([3]; DMSO) | λmax ([3]; DMSO) [nm] | A (absorbance) ([3]; MeOH) | ε (molar extinction coefficient) ([3]; MeOH) | λmax ([3]; MeOH) [nm] | melting point [°C] | Compound | FRAP [1] | DPPH (% Inhibition) (In vitro DPPH test) | inhibition at 100 µg/mL (Trichophyton tonsurans; 100 μg/mL, SDA) [%] | inhibition at 100 µg/mL ([2]; 100 μg/mL, SDA) [%] | inhibition at 100 µg/mL (Microsporum canis; 100 μg/mL, SDA) [%] | inhibition at 100 µg/mL (Microsporum gypseum; 100 μg/mL, SDA) [%] | inhibition at 100 µg/mL (Epidermophyton floccosum; 100 μg/mL, SDA) [%] | also measured
1 | 0.700 | 13944.22 | 344.37 | 0.760 | 13263.53 | 341.40 | > 250 | NS(=O)(=O)c1ccc2nc(-c3ccc[nH]3)sc2c1 [Compound 8c, 2-(1H-Pyrrol-2-Yl)benzothiazole-6-Sulfonamide] | 119.12 ± 1.49 μmolTE/g | 45.24 ± 2.78% | 2.25 ± 0.03 | 2.36 ± 0.17 | 23.3 ± 0.86 | 23.1 ± 0.48 | 24.7 ± 0.71 | 
2 | 1.160 | 17818.74 | 340.00 | 1.140 | 21268.66 | 334.57 | > 250 | O=C(O)c1ccc2nc(-c3cccs3)sc2c1 [Compound 10b, 2-(Thiophen-2-Yl)benzothiazole-6-Carboxylic Acid] | 133.91 ± 8.13 μmolTE/g | 46.04 ± 0.07% | 65.5 ± 1.58 | 14.2 ± 1.01 | 27.6 ± 1.47 | 18.5 ± 1.23 | 28.3 ± 1.04 | 

The remaining lines, values behind:

Row | Compound | A (absorbance) ([3]; DMSO) | ε (molar extinction coefficient) ([3]; DMSO) | λmax ([3]; DMSO) [nm] | A (absorbance) ([3]; MeOH) | ε (molar extinction coefficient) ([3]; MeOH) | λmax ([3]; MeOH) [nm] | melting point [°C] | FRAP [1] | DPPH (% Inhibition) (In vitro DPPH test) | inhibition at 100 µg/mL (Trichophyton tonsurans; 100 μg/mL, SDA) [%] | inhibition at 100 µg/mL ([2]; 100 μg/mL, SDA) [%] | inhibition at 100 µg/mL (Microsporum canis; 100 μg/mL, SDA) [%] | inhibition at 100 µg/mL (Microsporum gypseum; 100 μg/mL, SDA) [%] | inhibition at 100 µg/mL (Epidermophyton floccosum; 100 μg/mL, SDA) [%] | also measured
3 | O=C(O)/C=C/c1ccc(O)c(O)c1 [Caffeic acid, reference compound] |  |  |  |  |  |  |  | 10125.48 ± 32.87 μmolTE/g | 80.15 ± 1.24% |  |  |  |  |  | 
4 | O=C(O)c1ccc2nc(-c3ccco3)sc2c1 [Compound 9b, 2-(Furan-2-Yl)benzothiazole-6-Carboxylic Acid] | 1.36 | 23901.58 | 331.90 | 1.02 | 19318.18 | 327.57 | > 250 | 66.07 ± 8.23 μmolTE/g | 9.49 ± 0.04% | 29.8 ± 1.23 | < 0 | 14.5 ± 0.83 | 18.1 ± 0.97 | 5.48 ± 0.12 | 
5 | NS(=O)(=O)c1ccc2nc(-c3ccco3)sc2c1 [Compound 9c, 2-(Furan-2-Yl)benzothiazole-6-Sulfonamide] | 0.59 | 10332.75 | 329.00 | 0.740 | 13805.97 | 325.30 | > 250 | 150.34 ± 11.01 μmolTE/g | 64.92 ± 0.91% | < 0 | 10.97 ± 0.08 | 19.5 ± 1.2 | 17.82 ± 0.06 | 36.4 ± 1.25 | 
6 | O=S(=O)(O)c1ccc2[nH]c(-c3ccccc3)nc2c1 [PBSA, 2-Phenyl-1H-benzo[d]imidazole-5-sulfonic acid, reference compound] | 1.130 | 23839.66 | 310.50 | 1.460 | 30801.69 |  |  | <LOQ * | <LOQ * |  |  |  |  |  | inhibition at 100 µg/mL (Trichophyton tonsurans): < 0%; inhibition at 100 µg/mL [2]: < 0%; inhibition at 100 µg/mL (Microsporum canis): < 0%; inhibition at 100 µg/mL (Microsporum gypseum): 9.44 ± 0.35%; inhibition at 100 µg/mL (Epidermophyton floccosum): 7.28 ± 0.56%; SPF ([4]; 1% in W/O formulation): 3.22; UVAPF ([4]; 1% in W/O formulation): 0.94; λc ([4]; 1% in W/O formulation): 319 nm; SPF ([4]; 2% in W/O formulation): 4.63; UVAPF ([4]; 2% in W/O formulation): 0.94; λc ([4]; 2% in W/O formulation): 321 nm; SPF ([4]; 3% in W/O formulation): 5.09; UVAPF ([4]; 3% in W/O formulation): 1.02; λc ([4]; 3% in W/O formulation): 324 nm
7 | O=C(O)c1ccc2nc(-c3ccc[nH]3)sc2c1 [Compound 8b, 2-(1H-Pyrrol-2-Yl)benzothiazole-6-Carboxylic Acid] | 0.370 | 5308.47 | 348.87 | 0.190 | 3089.43 | 341.63 | > 250 | 373.15 ± 1.27 μmolTE/g | 5.71 ± 0.37% | 5.45 ± 0.12 | < 0 | < 0 | < 0 | < 0 | 
